Assay results from PMC7367207 (2020).

Assays:
[1] = tested on: crystallized SAM/SAH riboswitch (RNA1-26 + RNA2-9) (RNA, riboswitch, 5-bromocytidine at 4 of strand 1) GGUCACAACGGCUUCCUGGCGUGACC/AUUGGAGCA; test: X-ray crystallography; details: crystal
[2] = tested on: SK209-50 SAM/SAH riboswitch (wt) (RNA, riboswitch) UACCUGUCACAACGGCUUCCUGGCGUGACGAGGUGACCUCAGUGGAGCAA; test: ITC; details: 100 mM K+, 10 mM Mg2+; 40 mM HEPES-K pH 7.0, 298 K
[3] = tested on: G44O2'H-modified SAM/SAH riboswitch (RNA, riboswitch, 2'-deoxyguanosine at 42 (paper position 44)) UACCUGUCACAACGGCUUCCUGGCGUGACGAGGUGACCUCAGUGGAGCAA; test: ITC; details: 100 mM K+, 10 mM Mg2+; 40 mM HEPES pH 7.0, 298 K; 40 µM RNA, 1 mM ligand stock (legend; methods: 500 µM)
[4] = tested on: U23C-modified SAM/SAH riboswitch (RNA, riboswitch) UACCUGUCACAACGGCUUCCCGGCGUGACGAGGUGACCUCAGUGGAGCAA; test: ITC; details: 100 mM K+, 10 mM Mg2+; 40 mM HEPES pH 7.0, 298 K; 40 µM RNA, 1 mM ligand stock (legend; methods: 500 µM)
[5] = tested on: SAM/SAH riboswitch G44U (RNA, riboswitch) UACCUGUCACAACGGCUUCCUGGCGUGACGAGGUGACCUCAUUGGAGCAA; test: ITC; details: 100 mM K+, 10 mM Mg2+; 40 mM HEPES-K pH 7.0, 298 K
[6] = tested on: G46N7CH-modified SAM/SAH riboswitch (RNA, riboswitch, 7-deazaguanosine (N7 to CH) at 44 (paper position 46)) UACCUGUCACAACGGCUUCCUGGCGUGACGAGGUGACCUCAGUGGAGCAA; test: ITC; details: 100 mM K+, 10 mM Mg2+; 40 mM HEPES pH 7.0, 298 K; 40 µM RNA, 1 mM ligand stock (legend; methods: 500 µM)
[7] = tested on: U23isoC-modified SAM/SAH riboswitch (RNA, riboswitch, isocytidine at 21 (paper position 23, replaces U)) UACCUGUCACAACGGCUUCCUGGCGUGACGAGGUGACCUCAGUGGAGCAA; test: ITC; details: 100 mM K+, 10 mM Mg2+; 40 mM HEPES pH 7.0, 298 K; 40 µM RNA, 1 mM ligand stock (legend; methods: 500 µM)
[8] = tested on: smFRET SAM/SAH riboswitch with 3' DNA extension on anchor DNA (DNA:RNA, riboswitch, 3' 18 nt of strand 1 and all of strand 2 are DNA) GAUACCUGUCACAACGGCUUCCUGGCGUGACGAGGUGACCUCAGUGGAGCAAACCGCTGCCGTCGCTCCG/CGGAGCGACGGCAGCGGT; test: single-molecule FRET, high-FRET fraction; details: 100 mM K+, 2 mM Mg2+; 40 mM HEPES pH 7.5, surface-immobilised RNA, two-state isotherm

Compound | binding [1] | Kd [2] | Kd [8] | also measured
CSC[C@H]1O[C@@H](n2cnc3c(N)ncnc32)[C@H](O)[C@@H]1O | – | – | – | binding ([1]; PDB title says AMP, ligand record MTA): yes
NCCCSC[C@H]1O[C@@H](n2cnc3c(N)ncnc32)[C@H](O)[C@@H]1O | yes | 12 ± 1 µM | – | –
C[S+](CC[C@H](N)C(=O)O)C[C@H]1O[C@@H](n2cnc3c(N)ncnc32)[C@H](O)[C@@H]1O (stereo partly shown) | – | 19 ± 2 µM | 10 µM | binding ([1]; also 6YMM in space group P312): yes; binding [3]: weak; binding [4]: no; Kd [5]: 13 ± 3 µM; binding [6]: no; binding [7]: no
Nc1ncnc2c1ncn2[C@@H]1O[C@H](CSCC[C@H](N)C(=O)O)[C@@H](O)[C@H]1O | – | 20 ± 2 µM | 6 µM | binding ([1]; 1.7 Å, second SAH only at lattice contact): yes
Nc1ncnc2c1ncn2[C@@H]1O[C@H](CO)[C@@H](O)[C@H]1O | yes | – | – | –
Nc1ncnc2c1ncn2[C@@H]1O[C@H](COP(=O)(O)O)[C@@H](O)[C@H]1O | yes | – | – | –
